Laboratory results from US12071438B2, “Crystal forms of an ALK2 inhibitor” (Keros Therapeutics, Inc., priority 2018, dated 2024).

Experiments:
Format in all cases: physicochemical
[1] = 97% RH stress in polymorph screening study; details: RT, no solvent
[2] = XRPD analysis after DVS; details: post-DVS
Description: X-ray powder diffraction (XRPD) patterns were collected on a Bruker D8 diffractometer using Cu Kα radiation (40 kV, 40 mA), θ-2θ goniometer and divergence of 0.6 mm and receiving slits, and a Lynxeye detector. The instrument is performance checked using a certified Corundum standard (NIST 1976). The software used for data collection was Diffrac Plus XRD Commander v2.6.1 and the data were analyzed and presented using Materials Data Jade Software v 9.7.0. Samples were prepared by transferring 2 to 50 mg of sample to a zero background holder coated with a thin layer of petroleum jelly and leveled with a glass plate and analyzed at ambient temperature. The sample was rotated in its own plane during analysis.
(§1) Dynamic vapor sortion/desportion (DVS) analysis was conducted with a Hiden Isochema, IGAsorp, s/n IGSA 126. Samples were loaded in to a tared basket on the instrument and dried for 1 hour at 40° C. Samples were then analyzed at 25° C. with the following percent relative humidity (% RH) steps: Adsorption (% RH): 0.0, 10.0, 20.0, 30.0, 40.0, 50.0, 60.0, 70.0, 80.0, 90.0, 95.0, Desorption (% RH): 90.0, 80.0, 70.0, 60.0, 50.0, 40.0, 30.0, 20.0, 10.0, 0.0.

[3] = Dynamic vapor sorption/desorption (DVS); details: for hygroscopicity by DVS / DVS weight gain and loss: 25° C.; for hygroscopicity by DVS: 0-95% RH; for DVS weight gain and loss: adsorption 0-95% RH, desorption to 0% RH
Description: as §1

[4] = Form A and Form B competitive slurries (thermodynamically stable polymorph)
Description: To determine the thermodynamically stable polymorph between anhydrous Forms A and B, competitive slurries were conducted in three different solvent systems: ethanol, tetrahydrofuran, and 2-butanone (MEK)/water (95:5). Ethanol and tetrahydrofuran were chosen based on the solubility of the material. MEK was chosen as a potential process solvent and water was added to boost the solubility.
Thus, additional competitive slurries were conducted in three additional solvent systems: ethanol/heptane (1:5), ethyl acetate/water (97:3), and isopropanol/water (99:1). The ethanol/heptane system was evaluated at −15° C., 5° C., ambient (RT), and 40° C. The water containing systems were only evaluated at ambient temperature. The slurries were conducted for 7 days instead of 5 days, as done in the above slurries. Form D was also included in the competitive slurries containing water.

XRPD after DVS analysis (form change) [2]	hygroscopicity by DVS [3]	DVS weight gain and loss [3] [%]	Structure (SMILES)	further results
–	–	–	COc1cc2c(-c3cnn4cc(N5CCC(N6CCN(C)CC6)CC5)cnc34)ccnc2cc1F	XRPD Result [1]: Form C,
consistent with Form B	slightly hygroscopic	12	COc1cc2c(-c3cnn4cc(N5CCC(N6CCN(C)CC6)CC5)cnc34)ccnc2cc1F [Form B]	moisture gain onset in DVS ([3]; low relative humidities): begins immediately even at low relative humidities
–	–	–	COc1cc2c(-c3cnn4cc(N5CCC(N6CCN(C)CC6)CC5)cnc34)ccnc2cc1F [Form C]	thermodynamic stability at high water activity ([4]; high water activity (97:3 EtOAc/water)): more favored
No change	non-hygroscopic	0.5	COc1cc2c(-c3cnn4cc(N5CCC(N6CCN(C)CC6)CC5)cnc34)ccnc2cc1F [compound of Formula I free base, 7-fluoro-6-methoxy-4-(6-(4-(4-methylpiperazin-1-yl)piperidin-1-yl)pyrazolo[1,5-a]pyrimidin-3-yl)quinoline]	–

Structure (SMILES)	XRPD after DVS analysis (form change) [2]	hygroscopicity by DVS [3]	DVS weight gain and loss [3] [%]	further results
COc1cc2c(-c3cnn4cc(N5CCC(N6CCN(C)CC6)CC5)cnc34)ccnc2cc1F [Form A]	becomes highly disordered and converts to the hydrate, Form C	hygroscopic	38	hygroscopicity by DVS below 80% RH ([3]; below 80% RH): non-hygroscopic; polymorph stability over time (competitive slurries) ([4]; 40° C. down to −15° C., 7 days versus 5 days): most stable polymorph; thermodynamic stability at low water activity ([4]; low water activity (99:1 IPA/water)): most thermodynamically stable
